Test results as given in patent US11173144B2, “Adrenergic receptor modulating compounds and methods of using the same” (The Board of Trustees of the Leland Stanford Junior …, priority 2016, dated 2021).
Like-named read-outs stand apart in the source and are kept apart here.

Assays:
[1] = biological target: panel of CNS relevant targets, including G-protein coupled receptor and transporters; experiment: Screen against a panel of CNS relevant targets (off-target affinity); type: binding; details: broad range of neurotransmitter transporters, ion channels and other CNS proteins
Description: From a drug development perspective, characterizing the off-target effects of lead compounds is an important issue, as interactions with off-target molecules may lead to undesirable side effects. Thus we screened xamoterol (S) and the key compound compound 43 against a panel of CNS relevant targets, including G-protein coupled receptor and transporters. […].

[2] = tested on: LPS-induced TNF-α response; experiment: In vivo LPS assay; set-up: species or system C57BI/6J mice; details: mice, 3 mg/kg 15 min prior to LPS, 90 min post-LPS
Experimental: Amplification is performed using StepOnePlus (Applied Biosystems).
Following injections, mice are single-housed. At 90 min post-LPS/saline, mice are deeply anesthetized with isoflurane and blood is collected from the right ventricle via cardiac puncture (23 g needle) into lithium heparin-containing vials (BD microtainer plasma tubes). Plasma is separated by centrifugation (11,000 rpm for 3 minutes) within 30 min of collection and stored at −80° C. until analysis. The concentration of TNF-α in the collected plasma is measured by ELISA (Invitrogen, KMC3012) according to the manufacturer's instruction.

[3] = tested on: LPS-induced TNF-α production in primary microglia; experiment: In vitro primary microglia TNF-α assay (LPS stimulation, ELISA); type: cell-based, rat; details: 4 h
Description: Mixed glial cells are obtained from the cerebral cortex of Sprague Dawley rat pups at postnatal days 1-3. Briefly, neonates are euthanized by decapitation and their brain tissues are collected for isolation of cortex. The isolated cortex was then trypsinized, triturated, and placed onto tissue culture flasks in DMEM supplemented with 10% fetal bovine serum and 1% Penicillin/Streptomycin. After 10 days in vitro, microglia are harvested by gentle shaking of the growth flask, plated in a 96 well plate at a density of 30,000 cells/well, and incubated at 37° C. overnight. […] Following the 4 h incubation, cell media is collected and the concentration of TNF-α is measured by ELISA (Invitrogen, KRC3011) according to the manufacturer's instruction.
The effects of selected compounds on cellular inflammatory response to LPS are determined in primary microglia extracted from a rat. Briefly, mixed glial cells are obtained from the cerebral cortex of Sprague Dawley rat pups at postnatal days 1-3 and cultured in DMEM supplemented with 10% fetal bovine serum. After 7 days in vitro, microglia are harvested by gentle shaking of the growth flask and plated in a 96 well plate at the density of 3×10^4 cells/well. The cells are used following day. Effects of compounds on LPS-induced TNFα production are determined by incubating cells with LPS along with or without test compounds for 4 hours. Following the 4 hour incubation, cell media are collected and concentration of TNFα was measured by EUSA.

ADRB1 [4] = biological target: T1, ADRB1 (Homo sapiens (Human), UniProt P08588); experiment: cAMP assay (homogenous time-resolved fluorescence) in HEK-293 cells stably expressing human recombinant ADRB1; type: cell-based; details: for Emax: HEK293, 0.5 h, percent efficacy compared to the maximum response achieved with isoproterenol, read-out: cAMP pathway % Iso max
T1 sequence (P08588 whole entry): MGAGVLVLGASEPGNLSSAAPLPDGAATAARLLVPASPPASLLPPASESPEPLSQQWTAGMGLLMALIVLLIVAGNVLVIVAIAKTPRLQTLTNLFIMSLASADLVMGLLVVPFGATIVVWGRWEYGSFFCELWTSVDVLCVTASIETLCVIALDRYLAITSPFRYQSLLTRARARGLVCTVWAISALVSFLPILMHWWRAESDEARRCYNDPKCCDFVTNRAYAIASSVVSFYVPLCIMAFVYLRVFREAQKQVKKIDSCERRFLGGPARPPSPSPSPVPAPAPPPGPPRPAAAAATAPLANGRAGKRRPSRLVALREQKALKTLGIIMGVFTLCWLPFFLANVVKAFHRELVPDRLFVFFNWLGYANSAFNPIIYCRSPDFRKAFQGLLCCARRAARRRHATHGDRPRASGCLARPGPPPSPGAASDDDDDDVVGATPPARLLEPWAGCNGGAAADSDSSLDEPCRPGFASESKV
Experimental: Pharmacological effects of compounds at the cAMP pathway mediated by ADRB1 are evaluated by measuring cAMP production using the homogenous time-resolved fluorescence detection method with HEK-293 cells stably expressing human recombinant ADRB1. Briefly, cells are suspended in HBSS buffer completed with 20 mM HEPES (pH 7.4) and 500 μM IBMX (3-isobutyl-1-methylxanthine) and distributed at a density of 3×10^3 cells/well. […] The results are expressed as a percent of the maximum efficacy achieved with isoproterenol. Pharmacological effects of compounds at the cAMP pathway mediated by ADRB2 and ADRB3 are measured as described above using CHO cells stably expressing human recombinant ADRB2 and human SK-N-MC neurotumor cells endogenously expressing ADRB3, respectively.
After 30 minute incubation with compounds, the cells are lysed and the fluorescence donor (Europium-chelated-labeled cAMP tracer; Eu-cAMP tracer) and fluorescence acceptor (cAMP-specific monoclonal antibodies labeled with the ULight™ dye) are added. […] The results are expressed as a percent of the control response to 10 μM isoproterenol. For subtype selectivity determination, same procedure is performed using Chinese hamster ovary (CHO) cells stably expressing human β2-adrenergic receptors or SK-N-MC human neuroblastoma cell line expressing β3-adrenergic receptors.
(§1) ADRB1 EC50 from functional assay (nM)^a, Determined using the homogenous time-resolved fluorescence detection method with HEK-293 cells stably expressing human recombinant ADRB1. ADRB2 IC50 from binding assay(nM)^b, Determined using the Tag-lite Adrenoceptor Beta2 receptor ligand binding assay.

ADRB1 [5] = biological target: T1, ADRB1; experiment: β-arrestin assay (PathHunter enzyme fragment complementation, CHO-K1-ADRB1 cells); type: cell-based; details: for β-arrestin pathway % Iso max: percent efficacy compared to the maximum response achieved with isoproterenol; for concentration-dependent response at the β-arrestin pathway: up to 30 μM
Experimental: Pharmacological activity of compounds in the β-arrestin pathway mediated by ADRB1 are evaluated using an enzyme fragment complementation method with a β-galactosidase functional reporter. An engineered CHO-K1-ADRB1 PathHunter cell line (DiscoveRx) is used in the assay. In this cell line, enzyme acceptor (β-galactosidase fragment) is fused to β-arrestin and enzyme donor (β-galactosidase fragment) is fused to the ADRB1. Thus, activation of the ADRB1 stimulates binding of β-arrestin to the ProLink-tagged ADRB1 and forces complementation of the two enzyme fragments, resulting in the formation of an active β-galactosidase enzyme. Briefly, CHO-K1-ADRB1 PathHunter cell lines are plated in a total volume of 20 μL cell plating reagent (DiscoveRx, 93-0563R0A) at a density of 2,500 cells/well into 384 well microplates and incubated overnight at 37° C. in 5% CO2. […] Chemiluminescent signal is then read with a PerkinElmer Envision™ instrument. The results are expressed as a percent of the maximum efficacy achieved with isoproterenol.
Effects of compounds on β-arrestin signaling pathways are determined using CHO cells stably expressing human β1-adrenergic receptors or human β2-adrenergic receptors with PathHunter® β-Arrestin GPCR assay system (DiscoveRx). In this system, adrenergic receptor is fused in frame with the small enzyme fragment ProLink™ and co-expressed in cell stably expressing at fusion protein of β-arrestin and the larger, N-terminal deletion mutant of β-galactosidase enzyme. Activation of the adrenergic receptor stimulates binding of β-arrestin to the ProLink-tagged receptor and forces complementation of the two enzyme fragments, resulting in the formation of an active β-gal enzyme. This interaction leads to an increase in enzyme activity that can be measured using chemiluminescent detection reagents. The effects of compounds on β-arrestin signaling pathways are determined 90 minutes after incubating the cells with the test compounds.

ADRB2 = ADRB2 (Homo sapiens (Human), UniProt P07550); experiment: Tag-lite Adrenoceptor Beta2 receptor ligand binding assay; details: Table 7; read-out: ADRB2 IC50 from binding assay
Chain of ADRB2 (P07550 whole entry): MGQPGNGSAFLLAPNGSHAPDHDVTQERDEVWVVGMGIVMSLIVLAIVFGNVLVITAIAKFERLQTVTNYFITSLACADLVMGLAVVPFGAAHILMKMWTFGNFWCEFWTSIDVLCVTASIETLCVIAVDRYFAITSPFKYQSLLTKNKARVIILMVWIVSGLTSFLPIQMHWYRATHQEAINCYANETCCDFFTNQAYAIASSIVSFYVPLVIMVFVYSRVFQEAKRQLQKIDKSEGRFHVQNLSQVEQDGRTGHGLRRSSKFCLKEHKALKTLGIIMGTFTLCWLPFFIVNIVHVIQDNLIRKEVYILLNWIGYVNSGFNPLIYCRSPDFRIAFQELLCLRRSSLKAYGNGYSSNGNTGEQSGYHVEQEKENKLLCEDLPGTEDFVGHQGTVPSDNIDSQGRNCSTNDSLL
Experimental: as §1, with “The subtype selective activity of some compounds of interest was assessed for adrenergic receptor beta 1 (ADRB1) versus adrenergic receptor beta 2 (ADRB2). ADRB1 EC50” for “ADRB1 EC50”

C57BI/6J female mice = experiment: 24 day administration, lung and heart weight and fibrosis; type: in vivo; details: 10 mg/kg for 24 days
Experimental: C57BI/6J female mice were administered with isoproterenol, KSN01-01-15, or KSN01-01-18 at 10 mg/kg for 24 days. After 24 days of treatment, mice were sacrificed, and lung and heart weight were measured. Hearts were then fixed in 10% formalin, and stained with Masson trichrome for evaluation of fibrosis.

[6] = Table 3, read-out: cAMP pathway ADRB1 EC50
[7] = Table 4, read-out: cAMP pathway ADRB1 EC50
[8] = Table 4, read-out: β-arrestin pathway ADRB1 EC50
[9] = Table 7, read-out: ADRB1 EC50 from functional assay

O=C(NCCNC[C@H](O)COc1ccc(O)cc1)N1CCOCC1 [(S)-Xamoterol, reference compound]
Ki [1]: > 10000 nM
LPS-induced TNF-α response in periphery (plasma) [2]: markedly inhibited
LPS-induced inflammatory response in the brain (TNF-α, IL-1β, IL-6 gene expression) [2]: attenuated
inhibition of LPS-induced TNF-α production ([3]; rat primary microglia, LPS 10 ng/ml, compound 10 μM): approximately 60%

O=C(NCCNC[C@H](O)COc1cc(F)c(O)cc1F)N1CCOCC1 [Compound 28]
Emax (ADRB1 [4]; Table 3): 21.5 ± 0.5%
EC50 (ADRB1 [4]; [6]): 1 to 10 nM

N#Cc1cc(OC[C@@H](O)CNCCNC(=O)N2CCOCC2)ccc1O [Compound 29]
EC50 (ADRB1 [4]; [6]): 1 to 10 nM

COc1ccc(CCOCCNC[C@H](O)COc2ccc(O)cc2)cc1OC [Compound 44]
Emax (ADRB1 [4]; Table 4): 60.2 ± 9.9%
EC50 (ADRB1 [4]; [7]): 100 to 1000 nM
β-arrestin pathway % Iso max (ADRB1 [5]; Table 4): 14%
EC50 (ADRB1 [5]; [8]): 100 to 1000 nM

O=C(CCCNC[C@H](O)COc1ccc(O)cc1)N1CCOCC1 [Compound 45]
Emax (ADRB1 [4]; Table 4): 71.9 ± 1.3%
EC50 (ADRB1 [4]; [7]): 10 to 100 nM
β-arrestin pathway % Iso max (ADRB1 [5]; Table 4): 18.6%
EC50 (ADRB1 [5]; [8]): 100 to 1000 nM

O=C(CCNC[C@H](O)COc1ccc(O)cc1)N1CCOCC1 [Compound 46]
Emax (ADRB1 [4]; Table 4): 73.9 ± 10.2%
EC50 (ADRB1 [4]; [7]): 100 to 1000 nM
β-arrestin pathway % Iso max (ADRB1 [5]; Table 4): 13.7%
EC50 (ADRB1 [5]; [8]): 10 to 100 nM

O=C(NCCNC[C@H](O)COc1ccc(O)cc1)N1CC(O)C1 [Compound 47]
Emax (ADRB1 [4]; Table 4): 42 ± 2.4%
EC50 (ADRB1 [4]; [7]): 100 to 1000 nM
concentration-dependent response at the β-arrestin pathway (ADRB1 [5]): did not produce concentration-dependent response up to 30 μM

O=C(NCCNC[C@H](O)COc1ccc(O)cc1)N1CC(CO)C1 [Compound 48]
Emax (ADRB1 [4]; Table 4): 40.1 ± 3.9%
concentration-dependent response at the β-arrestin pathway (ADRB1 [5]): did not produce concentration-dependent response up to 30 μM

COc1ccc(CCNCC(O)COc2ccc(O)c(O)c2)cc1OC (centres unmarked) [Compound 50]
agonistic activity on the ADRB1-mediated cAMP pathway (ADRB1 [4]): full agonistic activity
EC50 (ADRB1 [4]; [7]): 1 to 10 nM
efficacy at the β-arrestin pathway compared to the full agonist isoproterenol (ADRB1 [5]): 36.5%
β-arrestin pathway % Iso max (ADRB1 [5]; Table 4): 36.5%
EC50 (ADRB1 [5]; [8]): 10 to 100 nM
EC50 (ADRB1 [5]; read-out: EC50 at the β-arrestin pathway via ADRB1): 32.2 nM

COc1ccccc1OCCNC[C@H](O)COc1cccc2[nH]nc(C)c12 [Compound 52]
EC50 (ADRB1 [4]; [9]): 9.2 nM
IC50 (ADRB2): 0.024 nM

COc1ccc(OCCNC[C@H](O)COc2cccc3[nH]nc(C)c23)cc1OC [Compound 55]
EC50 (ADRB1 [4]; [9]): 35.4 nM
IC50 (ADRB2): 0.38 nM

Cc1n[nH]c2cccc(OC[C@@H](O)CNCCc3ccccc3C(F)(F)F)c12 [Compound 69]
EC50 (ADRB1 [4]; [9]): 1 nM
IC50 (ADRB2): 0.048 nM

COc1ccccc1CC(C)NC[C@H](O)COc1cccc2[nH]nc(C)c12 (some centres unmarked) [Compound 72]
EC50 (ADRB1 [4]): 0.8 nM
IC50 (ADRB2): 0.009 nM

Cc1n[nH]c2cccc(OC[C@@H](O)CNC(C)(C)C)c12 [Compound 75]
EC50 (ADRB1 [4]; [9]): 3.5 nM
IC50 (ADRB2): 0.065 nM
fibrotic changes in heart and heart weight (C57BI/6J female mice): did not induce these changes
fibrotic changes in lung and lung weight (C57BI/6J female mice): did not induce these changes
morphological changes in heart (C57BI/6J female mice): did not induce these changes

Cc1n[nH]c2cccc(OC[C@@H](O)CNC(C)(C)COc3ccccn3)c12 [Compound 86]
EC50 (ADRB1 [4]; [9]): 44.7 nM
IC50 (ADRB2): 0.144 nM

Cc1n[nH]c2cccc(OC[C@@H](O)CNCCOc3ccccn3)c12 [Compound 87]
EC50 (ADRB1 [4]; [9]): 5 nM
IC50 (ADRB2): 0.23 nM

COCC(C)(C)NC[C@H](O)COc1cccc2[nH]nc(C)c12 [Compound 90]
EC50 (ADRB1 [4]; [9]): 3.4 nM
IC50 (ADRB2): 0.019 nM

CC(C)NCC(O)c1ccc(O)c(O)c1 (centres unmarked) [isoproterenol, reference compound]
inhibition at 10 µM ([3]; Rattus norvegicus, Microglia, read-out: inhibition of LPS-induced TNF-α production): 85%
fibrotic changes in heart and heart weight (C57BI/6J female mice): induces fibrotic changes in heart and increases heart weight
fibrotic changes in lung and lung weight (C57BI/6J female mice): induces fibrotic changes in lung and increases lung weight
morphological changes in heart (C57BI/6J female mice): produces morphological changes in heart
